Data on six compounds can be found in patent US7592332B2, “Cytokine inhibitors” (Boehringer Ingelheim Pharmaceuticals, Inc., priority 2004, dated 2009).

The structures appear in SMILES notation. Counter-ions that a name gives are not always drawn.

As a reminder, the melting point is the temperature, or range, at which the solid turns liquid. Regarding `Cc1ncc(C(C)(C)C)cc1NC(=O)c1cc2cccc(Oc3ccncc3)c2n1C` [Example 7, 1-methyl-7-(pyridine-4-yloxy)-1H-indole-2-carboxylic acid (5-tert-butyl-2-methyl-pyridin-3-yl)-amide], the melting point is 52 to 56 °C (dec.).

For `COc1cnc(C(C)(C)C)cc1NC(=O)c1cc2cccc(Oc3ccnc(N4CCN(C)CC4)n3)c2n1C` (as salt: salt) [Example 2, 1-methyl-7-[2-(4-methyl-piperazin-1-yl)-pyrimidin-4-yloxy]-1H-indole-2-carboxylic acid (2-tert-butyl-5-methoxy-pyridin-4-yl)-amide], the melting point was 72 to 74 °C (dec.).

Take `Cn1c(C(=O)Nc2cc(C(C)(C)C)ccc2[S+](C)[O-])cc2cccc(Oc3ccncc3)c21` (stereo not drawn) [Example 3, 1-methyl-7-(pyridine-4-yloxy)-1H-indole-2-carboxylic acid (5-tert-butyl-2-methanesulfinyl-phenyl)-amide]: the melting point is 88 to 92 °C (dec.).

On to `Cn1c(C(=O)Nc2cc(C(C)(C)C)ccc2S(C)(=O)=O)cc2cccc(Oc3ccncc3)c21` [Example 4, 1-methyl-7-(pyridine-4-yloxy)-1H-indole-2-carboxylic acid (5-tert-butyl-2-methanesulfonyl-phenyl)-amide], for which the melting point was 158 to 159 °C (dec.).

Regarding `Cn1c(C(=O)Nc2cc(C(C)(C)C)c[nH]c2=O)cc2cccc(Oc3ccncc3)c21` [Example 5, 1-methyl-7-(pyridine-4-yloxy)-1H-indole-2-carboxylic acid (5-tert-butyl-2-oxo-1,2-dihydropyridin-3-yl)-amide], the melting point was 236 to 238 °C (dec.).

`Cn1cc(C(C)(C)C)cc(NC(=O)c2cc3cccc(Oc4ccncc4)c3n2C)c1=O` [Example 6, 1-methyl-7-(pyridine-4-yloxy)-1H-indole-2-carboxylic acid (5-tert-butyl-1-methyl-2-oxo-1,2-dihydropyridin-3-yl)-amide]: the melting point was 74 to 76 °C (dec.).
